Experiment: mn = molality of the nth substance listed, in mol/kg
Settings: 101 kPa, Liquid; for viscosity: Falling or rolling sphere viscometry; for speed of sound: Frequency=3 MHz, Single path-length method; for mass density: Vibrating tube method

C[n+]1ccn(CCCCCn2cc[n+](C)c2)c1.[Br-].[Br-] + O
Settings | mass density [kg/m3] | speed of sound [m/s] | viscosity [mPa·s]
293.15 K, m1 = 0.03341 | 1002.35 | 1488.3 | 1.021
293.15 K, m1 = 0.04614 | 1003.89 | 1490.3 | 1.027
293.15 K, m1 = 0.05646 | 1005.11 | 1491.6 | 1.032
293.15 K, m1 = 0.06717 | 1006.38 | 1493.3 | 1.037
293.15 K, m1 = 0.0777 | 1007.58 | 1494.8 | 1.042
293.15 K, m1 = 0.08857 | 1008.85 | 1496.4 | 1.047
293.15 K, m1 = 0.09671 | 1009.75 | 1497.3 | 1.05
298.15 K, m1 = 0.03341 | 1001.16 | 1501.9 | 0.908
298.15 K, m1 = 0.04614 | 1002.7 | 1503.7 | 0.914
298.15 K, m1 = 0.05646 | 1003.91 | 1505 | 0.918
298.15 K, m1 = 0.06717 | 1005.17 | 1506.5 | 0.924
298.15 K, m1 = 0.0777 | 1006.38 | 1507.8 | 0.928
298.15 K, m1 = 0.08857 | 1007.62 | 1509.2 | 0.933
298.15 K, m1 = 0.09671 | 1008.51 | 1510.2 | 0.936
303.15 K, m1 = 0.03341 | 999.742 | 1514.4 | 0.815
303.15 K, m1 = 0.04614 | 1001.27 | 1515.9 | 0.821
303.15 K, m1 = 0.05646 | 1002.47 | 1517.1 | 0.825
303.15 K, m1 = 0.06717 | 1003.73 | 1518.5 | 0.83
303.15 K, m1 = 0.0777 | 1004.93 | 1519.8 | 0.835
303.15 K, m1 = 0.08857 | 1006.16 | 1520.9 | 0.839
303.15 K, m1 = 0.09671 | 1007.05 | 1521.8 | 0.843
308.15 K, m1 = 0.03341 | 998.108 | 1523.7 | 0.737
308.15 K, m1 = 0.04614 | 999.627 | 1525.1 | 0.741
308.15 K, m1 = 0.05646 | 1000.83 | 1526.4 | 0.747
308.15 K, m1 = 0.06717 | 1002.07 | 1527.4 | 0.752
308.15 K, m1 = 0.0777 | 1003.27 | 1528.7 | 0.757
308.15 K, m1 = 0.08857 | 1004.5 | 1529.9 | 0.762
308.15 K, m1 = 0.09671 | 1005.38 | 1530.7 | 0.766
313.15 K, m1 = 0.03341 | 996.275 | 1533.2 | 0.67
313.15 K, m1 = 0.04614 | 997.783 | 1534.3 | 0.676
313.15 K, m1 = 0.05646 | 998.981 | 1535.4 | 0.681
313.15 K, m1 = 0.06717 | 1000.22 | 1536.5 | 0.685
313.15 K, m1 = 0.0777 | 1001.41 | 1537.5 | 0.689
313.15 K, m1 = 0.08857 | 1002.64 | 1538.6 | 0.694
313.15 K, m1 = 0.09671 | 1003.53 | 1539.4 | 0.697

C[n+]1ccn(CCCCn2cc[n+](C)c2)c1.[Br-].[Br-] + O
Settings | mass density [kg/m3] | speed of sound [m/s] | viscosity [mPa·s]
293.15 K, m1 = 0.04944 | 1004.66 | 1489.8 | 1.026
293.15 K, m1 = 0.06711 | 1006.89 | 1492 | 1.034
293.15 K, m1 = 0.07912 | 1008.4 | 1493.5 | 1.039
293.15 K, m1 = 0.0927 | 1010.06 | 1495.1 | 1.044
293.15 K, m1 = 0.1021 | 1011.22 | 1496.2 | 1.049
298.15 K, m1 = 0.04944 | 1003.45 | 1503.2 | 0.914
298.15 K, m1 = 0.06711 | 1005.68 | 1505.2 | 0.921
298.15 K, m1 = 0.07912 | 1007.18 | 1506.6 | 0.926
298.15 K, m1 = 0.0927 | 1008.82 | 1508 | 0.931
298.15 K, m1 = 0.1021 | 1009.97 | 1509 | 0.935
303.15 K, m1 = 0.04944 | 1002.01 | 1515.4 | 0.821
303.15 K, m1 = 0.06711 | 1004.22 | 1517.1 | 0.828
303.15 K, m1 = 0.07912 | 1005.71 | 1518.5 | 0.833
303.15 K, m1 = 0.0927 | 1007.35 | 1519.8 | 0.839
303.15 K, m1 = 0.1021 | 1008.49 | 1520.7 | 0.842
308.15 K, m1 = 0.04944 | 1000.35 | 1524.7 | 0.744
308.15 K, m1 = 0.06711 | 1002.54 | 1526.3 | 0.751
308.15 K, m1 = 0.07912 | 1004.03 | 1527.3 | 0.756
308.15 K, m1 = 0.0927 | 1005.67 | 1528.9 | 0.762
308.15 K, m1 = 0.1021 | 1006.8 | 1529.5 | 0.765
313.15 K, m1 = 0.04944 | 998.497 | 1534.1 | 0.677
313.15 K, m1 = 0.06711 | 1000.68 | 1535.5 | 0.683
313.15 K, m1 = 0.07912 | 1002.15 | 1536.5 | 0.688
313.15 K, m1 = 0.0927 | 1003.79 | 1537.8 | 0.692
313.15 K, m1 = 0.1021 | 1004.91 | 1538.5 | 0.696

C[n+]1ccn(CCCn2cc[n+](C)c2)c1.[Br-].[Br-] [1,3-bis[3-methylimidazolium-1-yl]propane dibromide] + O
Settings | mass density [kg/m3] | speed of sound [m/s] | viscosity [mPa·s]
293.15 K, m1 = 0.03423 | 1002.81 | 1486.3 | 1.019
293.15 K, m1 = 0.04998 | 1004.86 | 1488.1 | 1.025
293.15 K, m1 = 0.06131 | 1006.3 | 1489.3 | 1.029
293.15 K, m1 = 0.07119 | 1007.55 | 1490.3 | 1.033
293.15 K, m1 = 0.08049 | 1008.72 | 1491.3 | 1.037
293.15 K, m1 = 0.089 | 1009.76 | 1492.2 | 1.04
293.15 K, m1 = 0.09492 | 1010.48 | 1492.8 | 1.042
298.15 K, m1 = 0.03423 | 1001.61 | 1499.9 | 0.906
298.15 K, m1 = 0.04998 | 1003.65 | 1501.6 | 0.912
298.15 K, m1 = 0.06131 | 1005.1 | 1502.6 | 0.917
298.15 K, m1 = 0.07119 | 1006.34 | 1503.5 | 0.921
298.15 K, m1 = 0.08049 | 1007.49 | 1504.6 | 0.924
298.15 K, m1 = 0.089 | 1008.53 | 1505.4 | 0.927
298.15 K, m1 = 0.09492 | 1009.24 | 1505.8 | 0.929
303.15 K, m1 = 0.03423 | 1000.19 | 1512.3 | 0.814
303.15 K, m1 = 0.04998 | 1002.22 | 1513.9 | 0.82
303.15 K, m1 = 0.06131 | 1003.66 | 1514.9 | 0.824
303.15 K, m1 = 0.07119 | 1004.89 | 1515.8 | 0.828
303.15 K, m1 = 0.08049 | 1006.04 | 1516.6 | 0.831
303.15 K, m1 = 0.089 | 1007.06 | 1517.5 | 0.835
303.15 K, m1 = 0.09492 | 1007.78 | 1518 | 0.838
308.15 K, m1 = 0.03423 | 998.558 | 1521.8 | 0.737
308.15 K, m1 = 0.04998 | 1000.57 | 1523.2 | 0.743
308.15 K, m1 = 0.06131 | 1002.01 | 1524 | 0.747
308.15 K, m1 = 0.07119 | 1003.23 | 1524.8 | 0.751
308.15 K, m1 = 0.08049 | 1004.38 | 1525.7 | 0.755
308.15 K, m1 = 0.089 | 1005.39 | 1526.4 | 0.758
308.15 K, m1 = 0.09492 | 1006.11 | 1526.8 | 0.76
313.15 K, m1 = 0.03423 | 996.725 | 1531.6 | 0.675
313.15 K, m1 = 0.04998 | 998.73 | 1532.7 | 0.679
313.15 K, m1 = 0.06131 | 1000.15 | 1533.5 | 0.683
313.15 K, m1 = 0.07119 | 1001.38 | 1534.1 | 0.689
313.15 K, m1 = 0.08049 | 1002.51 | 1534.8 | 0.686
313.15 K, m1 = 0.089 | 1003.53 | 1535.5 | 0.689
313.15 K, m1 = 0.09492 | 1004.24 | 1535.8 | 0.691

Source: the NIST ThermoML archive (doi:10.1021/acs.jced.8b00349)
